{"source": "paper PMC11277004", "about": "“Di- and Triselenoesters—Promising Drug Candidates for the Future Therapy of Triple-Negative Breast Cancer” (International Journal of Molecular Sciences, 2024)", "key": {"[1]": {"system": "MDA-MB-231 triple-negative breast cancer cells", "test": "DNA biosynthesis assay ([3H]-thymidine incorporation), MDA-MB-231", "type": "cell-based, human", "conditions": "read-out: IC50, DNA biosynthesis", "protocol": "(§1) The study of the antiproliferative properties (intensity of [^3H]-thymidine incorporation into cell DNA) of the tested derivatives against tested cell lines (MCF-7, MDA-MB-231, MCF-10A) was performed after 24 h incubation with varied concentrations of the tested compounds in the medium (0.5–5 µM) in 6-well plates (baseline seeding density: 5 × 10^5 cells/well). After 24 h the medium was removed, the cells were washed with PBS (Corning, Kennebunk, ME, USA), and a fresh medium was added. After that, the cells were treated with 0.5 µCi of tritium-labeled thymidine (specific activity 7 Ci/mmol) by incubating them with this compound for 4 h under the same conditions as the cell culture. In the first step, the medium was removed, and the cell monolayer was washed twice with 1 mL of 0.05 M Tris-HCl buffer pH 7.4 containing 0.11 M NaCl. To denature proteins, the cells were washed twice with 1 mL of 5% trichloroacetic acid (TCA) solution. Finally, cell lysis was performed by adding 1 mL of 0.1 M sodium hydroxide (NaOH) solution containing 1% sodium dodecyl sulfate (SDS) to each well. After five minutes, the obtained cell lysates were transferred to scintillation vials with 2 mL of scintillation fluid added to them beforehand. Radioactivity was measured using the Scintillation Counter 1900 TR, TRI-CARB (Packard, Perkin Elmer, Inc., San Jose, CA, USA). The intensity of DNA biosynthesis in the analyzed cells was expressed in terms of dpm/well. The result of the radioactivity measurement in the control cells (without the addition of tested compounds) was taken as 100%, while the values of cells incubated with the tested compounds were presented as a percentage of the control value."}, "[2]": {"system": "MCF-10A normal human breast epithelial cells", "test": "DNA biosynthesis assay ([3H]-thymidine incorporation), MCF-10A", "type": "cell-based", "conditions": "read-out: IC50, DNA biosynthesis", "protocol": "as §1"}, "[3]": {"system": "caspase 8", "test": "Caspase 8 activity (FAM-FLICA, flow cytometry), MDA-MB-231", "type": "cell-based, human", "conditions": "24 h", "protocol": "(§2) The FAM-FLICA® Caspase Assay kits (all from ImmunoChemistry Technologies, Bloomington, MN, USA) and flow cytometer (BD FACSCanto II, BD Biosciences Systems, San Jose, CA, USA) were used to evaluate the activity of caspase 3/7, 8, and 9. MCF-7 and MDA-MB-231 cells were treated with selenoesters under the study (EDAG-1 and EDAG-8) and a reference agent (cisplatin) at two different concentrations (0.5 and 1 µM; treatment duration: 24 h). Following this, cells were collected, washed twice with cold PBS, and resuspended in an Apoptosis Wash Buffer to a final concentration of 5 × 10^5 cells/mL. In the next step, 290 µL each of cell suspension was taken and transferred into tubes. Then 10 µL of FLICA solution diluted immediately before use (1:5 v/v, using PBS) was added to the cells, mixed by pipetting, and incubated in the dark for 1 h at 37 °C. After this time, the cells were washed twice with 2 mL Apoptosis Wash Buffer, centrifuged, and resuspended in 300 µL of the buffer. Thus, prepared samples were immediately analyzed using a BD FACSCanto II flow cytometer (10,000 events) with the FACSDiva 6.0 software (both from BD Biosciences Systems, San Jose, CA, USA). The equipment calibration was carried out using the BD Cytometer Setup and Tracking Beads (BD Biosciences, San Diego, CA, USA)."}, "[4]": {"system": "Bax", "test": "Bax protein level by flow cytometry, MDA-MB-231", "type": "cell-based, human", "conditions": "24 h", "protocol": "(§3) For this purpose, Akt (PE), Bax (FITC), Bcl-2 (Alexa Fluor® 647), LC3A/B (Alexa Fluor® 488), and p53 (Alexa Fluor® 488) antibodies conjugated to different fluorochromes (all from Cell Signaling Technology, Beverly, MA, USA) were utilized. Each assay was performed according to the manufacturer's protocol available on their website. After incubation with the tested compounds, the cells were centrifuged, resuspended in 4% formaldehyde (100 μL/1 × 10^6 cells), and fixed for 15 min at room temperature. Afterward, to remove the formaldehyde, the cells were washed by centrifugation with excess PBS and the permeabilization step was triggered. For this purpose, ice-cold 90% methanol was added to the pre-chilled cell pellet, gently vortexed, and incubated for 1 h on ice. Later, the cells were washed by centrifugation with excess PBS again, resuspended in 100 μL of 1:100 diluted primary antibody (stain buffer was used for dilution), and incubated for 1 h at room temperature in the dark. After incubation, the cells were washed, resuspended in 300 μL PBS, and immediately tested with a flow cytometer (BD FACSCanto II, BD Biosciences Systems, San Jose, CA, USA; 10,000 events measured). The obtained results were analyzed using the FACSDiva 6.0 software (BD Biosciences Systems, San Jose, CA, USA). In the case of the p53 protein, the MRF values were obtained first during the flow cytometer readout utilizing FACSDiva software and later analyzed using FCS Express 7 (De Novo Software, Pasadena, CA, USA). The equipment calibration was performed using the BD Cytometer Setup and Tracking Beads (BD Biosciences, San Diego, CA, USA)."}, "[5]": {"system": "Bcl-2", "test": "Bcl-2 protein level by flow cytometry, MCF-7", "type": "cell-based, human", "conditions": "24 h", "protocol": "as §3"}, "[6]": {"system": "p53", "test": "p53 protein expression by flow cytometry, MCF-7", "type": "cell-based, human", "conditions": "24 h", "protocol": "as §3"}, "[7]": {"system": "p53", "test": "p53 protein expression by flow cytometry, MDA-MB-231", "type": "cell-based, human", "conditions": "24 h", "protocol": "as §3"}, "[8]": {"system": "caspase 3/7", "test": "Caspase 3/7 activity (FAM-FLICA, flow cytometry), MDA-MB-231", "type": "cell-based, human", "conditions": "24 h", "protocol": "as §2"}, "[9]": {"system": "LC3A/B", "test": "LC3A/B protein level by flow cytometry, MDA-MB-231", "type": "cell-based, human", "conditions": "24 h", "protocol": "as §3"}}, "note": "Read-outs that look alike come from different tables or passages of the source.", "data": [{"smiles": "N.N.[Cl][Pt][Cl]", "note": "[Cisplatin, reference compound]", "values": [{"measurement": "IC50", "setting": "[1]; MDA-MB-231, 24 h incubation", "result": "> 5000", "unit": "nM"}, {"measurement": "IC50", "setting": "[2]; 24 h incubation", "result": "> 5000", "unit": "nM"}, {"measurement": "Active caspase 8 ± SD (cells)", "setting": "[3]; MDA-MB-231, 0.5 μM", "result": "7.3 ± 0.7", "unit": "%"}, {"measurement": "Active caspase 8 ± SD (cells)", "setting": "[3]; MDA-MB-231, 1 μM", "result": "8.0 ± 1.6", "unit": "%"}, {"measurement": "Bax positive cells ± SD", "setting": "[4]; MDA-MB-231, 0.5 μM", "result": "1.3 ± 0.3", "unit": "%"}, {"measurement": "Bax positive cells ± SD", "setting": "[4]; MDA-MB-231, 1 μM", "result": "1.4 ± 0.1", "unit": "%"}, {"measurement": "Bcl-2 negative cells ± SD", "setting": "[5]; MCF-7, 0.5 μM", "result": "2.7 ± 0.2", "unit": "%"}, {"measurement": "Bcl-2 negative cells ± SD", "setting": "[5]; MCF-7, 1 μM", "result": "2.7 ± 0.1", "unit": "%"}, {"measurement": "p53 protein expression, MRF", "setting": "[6]; MCF-7, 0.5 μM", "result": "375.8 ± 19.1"}, {"measurement": "p53 protein expression, MRF", "setting": "[6]; MCF-7, 1 μM", "result": "380.5 ± 20.4"}, {"measurement": "p53 protein expression, MRF", "setting": "[7]; MDA-MB-231, 0.5 μM", "result": "375.5 ± 3.5"}, {"measurement": "p53 protein expression, MRF", "setting": "[7]; MDA-MB-231, 1 μM", "result": "423.5 ± 2.1"}, {"measurement": "Active caspase 3/7 ± SD (cells)", "setting": "[8]; MDA-MB-231, 0.5 μM", "result": "5.2 ± 0.5", "unit": "%"}, {"measurement": "Active caspase 3/7 ± SD (cells)", "setting": "[8]; MDA-MB-231, 1 μM", "result": "5.2 ± 0.6", "unit": "%"}, {"measurement": "LC3A/B positive cells ± SD", "setting": "[9]; MDA-MB-231, 0.5 μM", "result": "2.4 ± 0.5", "unit": "%"}, {"measurement": "LC3A/B positive cells ± SD", "setting": "[9]; MDA-MB-231, 1 μM", "result": "3.2 ± 0.3", "unit": "%"}]}, {"smiles": "CC(=O)C[Se]C(=O)c1ccc(C(=O)[Se]CC(C)=O)cc1", "note": "[EDAG-1, Se,Se-bis(2-oxopropyl) benzene-1,4-bis(carboselenoate)]", "values": [{"measurement": "IC50", "setting": "[1]; Homo sapiens, MDA-MB-231, 24 h", "result": "700 ± 150", "unit": "nM"}, {"measurement": "IC50", "setting": "[2]; Homo sapiens, 24 h", "result": "720 ± 70", "unit": "nM"}, {"measurement": "Active caspase 8 ± SD (cells)", "setting": "[3]; MDA-MB-231, 0.5 μM", "result": "11.5 ± 0.9", "unit": "%"}, {"measurement": "Active caspase 8 ± SD (cells)", "setting": "[3]; MDA-MB-231, 1 μM", "result": "14.4 ± 1.2", "unit": "%"}, {"measurement": "Bax positive cells ± SD", "setting": "[4]; MDA-MB-231, 0.5 μM", "result": "12.5 ± 2.3", "unit": "%"}, {"measurement": "Bax positive cells ± SD", "setting": "[4]; MDA-MB-231, 1 μM", "result": "37.8 ± 5.1", "unit": "%"}, {"measurement": "Bcl-2 negative cells ± SD", "setting": "[5]; MCF-7, 0.5 μM", "result": "13.9 ± 0.9", "unit": "%"}, {"measurement": "Bcl-2 negative cells ± SD", "setting": "[5]; MCF-7, 1 μM", "result": "38.4 ± 4.0", "unit": "%"}, {"measurement": "p53 protein expression, MRF", "setting": "[6]; MCF-7, 0.5 μM", "result": "404.8 ± 23.7"}, {"measurement": "p53 protein expression, MRF", "setting": "[6]; MCF-7, 1 μM", "result": "407.8 ± 22.0"}, {"measurement": "p53 protein expression, MRF", "setting": "[7]; MDA-MB-231, 0.5 μM", "result": "559.3 ± 63.1"}, {"measurement": "p53 protein expression, MRF", "setting": "[7]; MDA-MB-231, 1 μM", "result": "593.0 ± 10.8"}, {"measurement": "Active caspase 3/7 ± SD (cells)", "setting": "[8]; MDA-MB-231, 0.5 μM", "result": "9.2 ± 0.5", "unit": "%"}, {"measurement": "Active caspase 3/7 ± SD (cells)", "setting": "[8]; MDA-MB-231, 1 μM", "result": "12.5 ± 0.4", "unit": "%"}, {"measurement": "LC3A/B positive cells ± SD", "setting": "[9]; MDA-MB-231, 0.5 μM", "result": "10.5 ± 1.4", "unit": "%"}, {"measurement": "LC3A/B positive cells ± SD", "setting": "[9]; MDA-MB-231, 1 μM", "result": "15.4 ± 1.3", "unit": "%"}]}, {"smiles": "CC(=O)C[Se]C(=O)c1cc(C(=O)[Se]CC(C)=O)cc(C(=O)[Se]CC(C)=O)c1", "note": "[EDAG-8, Se,Se,Se-tris-(2-oxopropyl) benzene-1,3,5-tris-(carboxyselenoate)]", "values": [{"measurement": "IC50", "setting": "[1]; Homo sapiens, MDA-MB-231, 24 h", "result": "470 ± 80", "unit": "nM"}, {"measurement": "IC50", "setting": "[2]; Homo sapiens, 24 h", "result": "930 ± 70", "unit": "nM"}, {"measurement": "Active caspase 8 ± SD (cells)", "setting": "[3]; MDA-MB-231, 0.5 μM", "result": "15.0 ± 2.0", "unit": "%"}, {"measurement": "Active caspase 8 ± SD (cells)", "setting": "[3]; MDA-MB-231, 1 μM", "result": "26.6 ± 3.6", "unit": "%"}, {"measurement": "Bax positive cells ± SD", "setting": "[4]; MDA-MB-231, 0.5 μM", "result": "34.5 ± 3.4", "unit": "%"}, {"measurement": "Bax positive cells ± SD", "setting": "[4]; MDA-MB-231, 1 μM", "result": "60.3 ± 8.8", "unit": "%"}, {"measurement": "Bcl-2 negative cells ± SD", "setting": "[5]; MCF-7, 0.5 μM", "result": "45.2 ± 9.3", "unit": "%"}, {"measurement": "Bcl-2 negative cells ± SD", "setting": "[5]; MCF-7, 1 μM", "result": "63.6 ± 3.7", "unit": "%"}, {"measurement": "p53 protein expression, MRF", "setting": "[6]; MCF-7, 0.5 μM", "result": "421.3 ± 24.5"}, {"measurement": "p53 protein expression, MRF", "setting": "[6]; MCF-7, 1 μM", "result": "450.8 ± 28.7"}, {"measurement": "p53 protein expression, MRF", "setting": "[7]; MDA-MB-231, 0.5 μM", "result": "624.8 ± 49.7"}, {"measurement": "p53 protein expression, MRF", "setting": "[7]; MDA-MB-231, 1 μM", "result": "661.5 ± 18.6"}, {"measurement": "Active caspase 3/7 ± SD (cells)", "setting": "[8]; MDA-MB-231, 0.5 μM", "result": "19.7 ± 0.6", "unit": "%"}, {"measurement": "Active caspase 3/7 ± SD (cells)", "setting": "[8]; MDA-MB-231, 1 μM", "result": "32.2 ± 2.9", "unit": "%"}, {"measurement": "LC3A/B positive cells ± SD", "setting": "[9]; MDA-MB-231, 0.5 μM", "result": "14.8 ± 0.5", "unit": "%"}, {"measurement": "LC3A/B positive cells ± SD", "setting": "[9]; MDA-MB-231, 1 μM", "result": "17.0 ± 1.6", "unit": "%"}]}]}
